For series [1], the system named is oxotremorine. As to the kind of experiment: Hypothermic tests with oxotremorine: body temperature change. Type of series: in vivo, mice. Particulars: for Body Temperature °F. Change From Vehicle Control After 15 Minutes / Body Temperature °F. Change From Vehicle Control After 30 Minutes / Body Temperature °F. Change From Vehicle Control After 60 Minutes / Body Temperature °F. Change From Vehicle Control After 90 Minutes: ip, 0.5 h; for antagonism of oxotremorine temperature decrease: oxotremorine 0.6 mg./kg., in words. An excerpt:
Hypothermic tests with oxotermorine: [1-(4-pyrrolidino-2-butynyl)-2-pyrrolidinone].

Series [2] relates to oxotremorine. The note with it: in words, cited from earlier work; for block of oxotremorine hypothermic response: mice.
Series [3] in a line: Lethality of yohimbine hydrochloride alone. The class given is in vivo. Particulars: mice, 30 mg./kg., in words. The procedure: After two hours, the LD50 are determined.
Series [4] deals with yohimbine. The class given is in vivo, mice. Particulars: Table VII. The method, then: Ten male CF mice, 18-22 g., were injected with the anti-depressant and 30 minutes later with 30 mg. of yohimbine hydrochloride (YCl) in saline solution. After two hours, the LD50 are determined.
The test system of series [5] is oxotremorine. Type of series: in vivo, mice. The note with it: Table VII. The method, then: The present compounds were tested as follows. […] The lowering of the body temperature was measured rectally with an electronic thermometer, before and 30 minutes after drug administration. After the drug administration the mice were kept at 19° C. in cages. A four degree difference between the control mice (oxotremorine alone) and the treated mice (oxotremorine and test compound) was used to indicate the antagonistic action of the test compound.

For series [6], the system named is strychnine. The class given is in vivo. Particulars: 3 mg./kg. intraperitoneally. The method, then:
The test consists in orally administering into groups of 6 mice the test compound, and 30 minutes later 3 mg./kg. strychnine sulfate intraperitoneally. The survivors after 4 hours reflect the activity of the compound as a muscle relaxant and antispasmodic.

The subject of series [7] is apomorphine. The note with it: Table VII.
Series [8] deals with nicotine. Particulars: control (untreated) mice, nicotine salicylate 2 mg./kg.

Entries after “also recorded” stand apart in the source; their conditions may differ. Where a name gives a salt, the structure may show the parent alone.

On to `CN(C)CCC=C1c2ccccc2COc2ccccc21` [Doxepine], for which, in series [1] (25 mg/kg), the “Body Temperature °F. Change From Vehicle Control After 15 Minutes” value was -2.3 °F, the “Body Temperature °F. Change From Vehicle Control After 30 Minutes” value is “- 7.1 °F”, the “Body Temperature °F. Change From Vehicle Control After 60 Minutes” value was -11.0 °F and the “Body Temperature °F. Change From Vehicle Control After 90 Minutes” value is recorded as -12.3 °F. Further, in series [1] (mice), the “antagonism of oxotremorine temperature decrease” value is reported as “antagonized”.
For `CN1[C@@H]2CC[C@H]1C[C@@H](OC(=O)C(CO)c1ccccc1)C2` (stereo partly shown) [Atropine], the “block of oxotremorine hypothermic response” value in series [2] is reported as “blocked”.
Turning to `CN1CCc2cccc3c2[C@H]1Cc1ccc(O)c(O)c1-3` [apomorphine], the “hypothermic response in mice” value in series [2] is “produces hypothermic responses in mice”.
Turning to `COC(=O)[C@@H]1[C@H]2C[C@H]3c4[nH]c5ccccc5c4CCN3C[C@@H]2CC[C@@H]1O` [yohimbine hydrochloride], the “lethality of yohimbine hydrochloride alone” value in series [3] is recorded as “non-lethal”; in series [3] (listed as YCl), “no death; also recorded: No mice or only one mouse is killed”.
For the compound `CN(C)CCC=C1c2ccccc2CCc2ccccc21` [Amitriptyline], in series [1] (25 mg/kg), the “Body Temperature °F. Change From Vehicle Control After 15 Minutes” value was “+0.7 °F”, the “Body Temperature °F. Change From Vehicle Control After 30 Minutes” value was “- 2.4 °F”, the “Body Temperature °F. Change From Vehicle Control After 60 Minutes” value is “- 5.4 °F” and the “Body Temperature °F. Change From Vehicle Control After 90 Minutes” value is “- 6.8 °F”.
In the case of `O=C1CCCN1CC#CCN1CCCC1` [Oxotremorine, 1-(4-pyrrolidino-2-butynyl)-2-pyrrolidinone], the “decrease of body temperature of a mouse” value in series [1] (0.6 mg./kg., mouse kept at room temperature) was “about 13 ° F”. Also, the “time of peak hypothermia after administration” value in series [1] (mice) turned out to be 60 min. For the same compound, in series [2], the “hypothermic response in mice” value was “produces hypothermic responses in mice”.
On to `NCc1nnc2n1-c1ccc(Cl)cc1C(c1ccccc1)=NC2` [1-(Aminomethyl)-8-chloro-6-phenyl-4H-s-triazolo[4,3-a][1,4]benzodiazepine], for which, in series [4], the “YO (Yohimbine test)” value was 35.4. Moreover, the “Oxo (oxotremorine test)” value in series [5] came to 29.7.
Turning to `COc1cc2c(cc1OC)C1CC(=O)C(CC(C)C)CN1CC2` (stereo not shown) [tetrabenazine], the “hypothermic response in mice” value in series [2] is recorded as “produces hypothermic responses in mice”.
Turning to `CC(N)Cc1ccccc1` (stereo not shown) [Amphetamine], in series [1] (5 mg/kg), the “Body Temperature °F. Change From Vehicle Control After 15 Minutes” value is given as -1.5 °F, the “Body Temperature °F. Change From Vehicle Control After 30 Minutes” value was “- 4.3 °F”, the “Body Temperature °F. Change From Vehicle Control After 60 Minutes” value is given as “- 4.4 °F” and the “Body Temperature °F. Change From Vehicle Control After 90 Minutes” value was “- 2.2 °F”.
Turning to `CN(C)CCCN1c2ccccc2CCc2ccccc21` [Imipramine], in series [1] (25 mg/kg), the “Body Temperature °F. Change From Vehicle Control After 15 Minutes” value was -0.4 °F, the “Body Temperature °F. Change From Vehicle Control After 30 Minutes” value is reported as “- 3.3 °F”, the “Body Temperature °F. Change From Vehicle Control After 60 Minutes” value was “- 5.6 °F” and the “Body Temperature °F. Change From Vehicle Control After 90 Minutes” value is on record as “- 6.4 °F”. For the same compound, the “antagonism of oxotremorine temperature decrease” value in series [1] (mice) is “antagonized”. Also, in series [2], the “block of oxotremorine hypothermic response” value is “blocked”.
Regarding `CNCCCN1c2ccccc2CCc2ccccc21` [Desipramine], in series [1] (25 mg/kg), the “Body Temperature °F. Change From Vehicle Control After 15 Minutes” value was -3.5 °F, the “Body Temperature °F. Change From Vehicle Control After 30 Minutes” value is given as “- 3.5 °F”, the “Body Temperature °F. Change From Vehicle Control After 60 Minutes” value was “- 4.1 °F” and the “Body Temperature °F. Change From Vehicle Control After 90 Minutes” value is reported as “- 3.6 °F”. Further, in series [1] (mice), the “antagonism of oxotremorine temperature decrease” value is “antagonized”.
On to `O=C1C[C@@H]2OCC=C3CN4CC[C@]56c7ccccc7N1[C@H]5[C@H]2[C@H]3C[C@H]46` [strychnine sulfate], for which the “lethality of strychnine sulfate in control mice” value in series [6] is “routinely fatal to all the control mice”.
As for `CN(C)Cc1nnc2n1-c1ccc(Cl)cc1C(c1ccccc1Cl)=NC2` [8-Chloro-1-[(dimethylamino)methyl]-6-(o-chlorophenyl)-4H-s-triazolo[4,3-a][1,4]benzodiazepine], the “Ap (Apomorphine test)” value in series [7] amounted to 17.8.
Turning to `CN1CCC[C@H]1c1cccnc1` [nicotine salicylate], the “effect of nicotine salicylate in control mice” value in series [8] is reported as “running convulsions followed by (2) tonic extensor fits; followed by (3) death”.

These data come from patent publication US4250094A, “1-(Aminoalkyl) substituted-6-phenyl-4H-s-triazolo[4,3-a][1,4]benzodiazepines” (priority 1979, dated 1981).
